Laboratory results reported in patent US20150051144A1, “COMPOUNDS FOR THE TREATMENT OF DYSLIPIDEMIA AND OTHER DISEASES” (Cadila Healthcare Limited, priority 2012, published 2015).

Molecular target: PCSK9 (Homo sapiens, UniProt Q8NBP7)
Assay: PCSK9-LDLR in vitro Binding Assay (solid phase, ELISA readout)
Conditions: for inhibition at 10 µM: test compound concentration 10 μM; for inhibition at 100 µM: test compound concentration 100 μM
Description: The PCSK9-LDLR in vitro Binding Assay is a quantitative solid phase binding assay between PCSK9 and recombinant LDLR. Plates were pre-coated with a recombinant LDLR-AB domain, which binds PCSK9. Test compound at different concentration was added to the PCSK9 and added to LDLR immobilized on the wells. The amount of bound PCSK9 is measured by binding it with biotinylated anti-His-tag monoclonal antibody, followed by binding with horseradish peroxidase conjugated streptavidin substrate. The color was quantified by ELISA reader at […] which reflects the relative amount of PCSK9 that binds to LDLR in presence and absence of the inhibitor.

Sequence of PCSK9 (Q8NBP7 153-692): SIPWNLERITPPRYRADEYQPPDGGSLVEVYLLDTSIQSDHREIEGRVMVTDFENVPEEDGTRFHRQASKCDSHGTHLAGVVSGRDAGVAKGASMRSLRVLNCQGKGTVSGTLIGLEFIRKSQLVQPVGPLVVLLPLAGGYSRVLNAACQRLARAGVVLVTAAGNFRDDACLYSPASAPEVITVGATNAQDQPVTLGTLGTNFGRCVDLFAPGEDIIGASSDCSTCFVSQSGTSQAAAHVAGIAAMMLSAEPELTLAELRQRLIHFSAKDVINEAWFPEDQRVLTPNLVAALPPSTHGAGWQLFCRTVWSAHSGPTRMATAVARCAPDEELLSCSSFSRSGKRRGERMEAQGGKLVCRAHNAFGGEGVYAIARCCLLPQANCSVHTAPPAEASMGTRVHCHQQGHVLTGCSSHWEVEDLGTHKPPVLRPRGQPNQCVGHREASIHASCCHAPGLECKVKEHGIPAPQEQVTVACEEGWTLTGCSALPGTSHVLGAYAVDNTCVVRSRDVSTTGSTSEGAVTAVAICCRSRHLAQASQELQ
Sequence of PCSK9 (Q8NBP7 31-152 partner limits assumed): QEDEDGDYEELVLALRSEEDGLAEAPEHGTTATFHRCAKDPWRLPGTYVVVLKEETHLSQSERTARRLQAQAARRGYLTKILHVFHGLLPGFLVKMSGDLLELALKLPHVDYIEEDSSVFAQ

| SMILES | inhibition at 10 µM [%] | inhibition at 100 µM [%] |
| --- | --- | --- |
| CN1CCN(C(=O)COc2ccc(C(Cc3ccccc3)=NOCc3ccc(C(F)(F)F)cc3)cc2)CC1 [Example 6, 1-(4-Methylpiperazin-1-yl)-2-(4-(2-phenyl-1-(((4-(trifluoromethyl)benzyl)oxy)imino)ethyl)phenoxy)ethanone] | 49 |  |
| Cc1cc(C(Cc2ccsc2)=NOCc2ccc(C(F)(F)F)cc2)ccc1OCC(=O)N1CCOCC1 [Example 10, 2-(2-Methyl-4-(2-(thiophen-3-yl)-1-(((4-(trifluoromethyl)benzyl)oxy)imino)ethyl)phenoxy)-1-morpholinoethanone] | 21 | 53 |
| CC(=NOCc1ccc(C(F)(F)F)cc1)c1ccc(OCC(=O)N2CCOCC2)cc1 [Example 11, 1-Morpholino-2-(4-(1-(((4-(trifluoromethyl)benzyl)oxy)imino)ethyl)phenoxy)ethanone] | 26 | 57 |
| CCC(=NOCc1ccc(C(F)(F)F)cc1)c1ccc(OCC(=O)Nc2cc(C)nn2C)cc1 [Example 22, N-(1,3-Dimethyl-1H-pyrazol-5-yl)-2-(4-(1-(((4-(trifluoromethyl)benzyl)oxy)imino)propyl)phenoxy)acetamide] | 35 | 60 |
| Cc1ccc(CON=C(Cc2ccccc2)c2ccc(OCC(=O)N3CCOCC3)c(C)c2)cc1 [Example 26, 2-(2-Methyl-4-(1-(((4-methylbenzyl)oxy)imino)-2-phenylethyl)phenoxy)-1-morpholinoethanone] | 32 | 44 |
| COc1ccc(CON=C(Cc2ccccc2)c2ccc(OCC(=O)N3CCOCC3)c(C)c2)cc1 [Example 36, 2-(4-(1-(((4-methoxybenzyl)oxy)imino)-2-phenylethyl)-2-methylphenoxy)-1-morpholinoethanone] | 22 | 40 |
| COc1ccc(CON=C(Cc2ccccc2)c2ccc(OCC(=O)N3CCCCC3)c(C)c2)cc1 [Example 40, 2-(4-(1-(((4-methoxybenzyl)oxy)imino)-2-phenylethyl)-2-methylphenoxy)-1-(piperidin-1-yl)ethanone] | 24 | 50 |
| CCC(=NOCCn1ccc2ccccc21)c1ccc(OCC(=O)N2CCN(C)CC2)cc1 [Example 46, 2-(4-(1-((2-(1H-indol-1-yl)ethoxy)imino)propyl)phenoxy)-1-(4-methylpiperazin-1-yl)ethanone] | 27 | 59 |
| CCC(=NOCc1nc(-c2ccccc2)oc1C)c1ccc(OCC(=O)N2CCN(C)CC2)cc1 [Example 50, 2-(4-(1-(((5-methyl-2-phenyloxazol-4-yl)methoxy)imino)propyl)phenoxy)-1-(4-methylpiperazin-1-yl)ethanone] | 22 | 42 |
| O=C(COc1ccc2c(c1)CCCC2=NOCc1ccc(C(F)(F)F)cc1)N1CCCCC1 [Example 54, 1-(piperidin-1-yl)-2-((5-(((4-(trifluoromethyl)benzyl)oxy)imino)-5,6,7,8-tetrahydronaphthalen-2-yl)oxy)ethanone] | 40 | 62 |
| CN1CCN(C(=O)COc2ccc3c(c2)CCCC3=NOCc2ccc(C(F)(F)F)cc2)CC1 [Example 56, 1-(4-methylpiperazin-1-yl)-2-((5-(((4-(trifluoromethyl)benzyl)oxy)imino)-5,6,7,8-tetrahydronaphthalen-2-yl)oxy)ethanone] | 63 | 66 |
| O=C(COc1ccc2c(c1)CCCC2=NOCc1ccc(C(F)(F)F)cc1)NN1CCOCC1 [Example 57, N-morpholino-2-((5-(((4-(trifluoromethyl)benzyl)oxy)imino)-5,6,7,8-tetrahydronaphthalen-2-yl)oxy)acetamide] | 50 | 59 |
| O=C(COc1ccc2c(c1)CCCC2=NOCc1ccc(C(F)(F)F)cc1)NN1CCCCC1 [Example 58, N-(piperidin-1-yl)-2-((5-(((4-(trifluoromethyl)benzyl)oxy)imino)-5,6,7,8-tetrahydronaphthalen-2-yl)oxy)acetamide] | 50 | 53 |
| O=C(COc1ccc2c(c1)CCCC2=NOCc1ccc(C(F)(F)F)cc1)Nc1nc2cc(Cl)ccc2o1 [Example 59, N-(5-chlorobenzo[d]oxazol-2-yl)-2-((5-(((4-(trifluoromethyl)benzyl)oxy)imino)-5,6,7,8-tetrahydronaphthalen-2-yl)oxy)acetamide] | 49 | 79 |
| Cc1ccnc(NC(=O)COc2ccc3c(c2)CCCC3=NOCc2ccc(C(F)(F)F)cc2)n1 [Example 60, N-(4-methylpyrimidin-2-yl)-2-((5-(((4-(trifluoromethyl)benzyl)oxy)imino)-5,6,7,8-tetrahydronaphthalen-2-yl)oxy)acetamide] | 61 | 91 |
| [C-]#[N+]c1ccccc1NC(=O)COc1ccc2c(c1)CCCC2=NOCc1ccc(C(F)(F)F)cc1 [Example 63, N-(2-isocyanophenyl)-2-((5-(((4-(trifluoromethyl)benzyl)oxy)imino)-5,6,7,8-tetrahydronaphthalen-2-yl)oxy)acetamide] | 48 | 58 |

The next lines start with the values.

| inhibition at 10 µM [%] | inhibition at 100 µM [%] | SMILES |
| --- | --- | --- |
| 50 | 51 | Cc1cc(C(Cc2ccccc2)=NOCc2ccc(C(F)(F)F)cc2)ccc1OCC(=O)N1CCOCC1 [Example 1, 2-(2-Methyl-4-(2-phenyl-1-(((4-(trifluoromethyl)benzyl)oxy)imino)ethyl)phenoxy)-1-morpholinoethanone] |
| 32 | 38 | Cc1cc(C(Cc2ccccc2)=NOCc2ccc(C(F)(F)F)cc2)ccc1OCC(=O)NCC(=O)N1CCOCC1 [Example 3, 2-(2-Methyl-4-(2-phenyl-1-(((4-(trifluoromethyl)benzyl)oxy)imino)ethyl)phenoxy)-N-(2-morpholino-2-oxoethyl)acetamide] |
| 31 | 62 | O=C(COc1ccc(C(Cc2ccccc2)=NOCc2ccc(C(F)(F)F)cc2)cc1)N1CCOCC1 [Example 4, 1-Morpholino-2-(4-(2-phenyl-1-(((4-(trifluoromethyl)benzyl)oxy)imino)ethyl)phenoxy)ethanone] |
| 50 | 52 | CC(C)(C)OC(=O)N1CCC(ONC(=O)COc2ccc(C(Cc3ccccc3)=NOCc3ccc(C(F)(F)F)cc3)cc2)CC1 [Example 8, tert-Butyl 4-((2-(4-(2-phenyl-1-(((4-(trifluoromethyl)benzyl)oxy)imino)ethyl)phenoxy)acetamido)oxy)piperidine-1-carboxylate] |
| 53 | 33 | O=C(COc1ccc(C(Cc2ccccc2)=NOCc2ccc(C(F)(F)F)cc2)cc1)NN1CCOCC1 [Example 9, N-Morpholino-2-(4-(2-phenyl-1-(((4-(trifluoromethyl)benzyl)oxy)imino)ethyl)phenoxy)acetamide] |
| 52 | 54 | CCC(=NOCc1ccc(C(F)(F)F)cc1)c1ccc(OCC(=O)N2CCOCC2)cc1 [Example 13, 1-Morpholino-2-(4-(1-(((4-(trifluoromethyl)benzyl)oxy)imino)propyl)phenoxy)ethanone] |
| 32 | 64 | CCC(=NOCc1ccc(C(F)(F)F)cc1)c1ccc(OCC(=O)N2CCCCC2)cc1 [Example 15, 1-(Piperidin-1-yl)-2-(4-(1-(((4-(trifluoromethyl)benzyl)oxy)imino)propyl)phenoxy)ethanone] |
| 20 | 54 | CCC(=NOCc1ccc(C(F)(F)F)cc1)c1ccc(OCC(=O)N(CCO)c2ccccc2)cc1 [Example 20, N-(2-Hydroxyethyl)-N-phenyl-2-(4-(1-(((4-(trifluoromethyl)benzyl)oxy)imino)propyl)phenoxy)acetamide] |
| 27 | 40 | O=C(COc1ccc(C(Cc2ccccc2)=NOCc2ccccc2)cc1)N1CCOCC1 [Example 25, 2-(4-(1-((Benzyloxy)imino)-2-phenylethyl)phenoxy)-1-morpholinoethanone] |
| 25 | 46 | Cc1cc(C(Cc2ccccc2)=NOCc2ccc(OC(F)(F)F)cc2)ccc1OCC(=O)N1CCOCC1 [Example 34, 2-(2-methyl-4-(2-phenyl-1-(((4-(trifluoromethoxy)benzyl)oxy)imino)ethyl)phenoxy)-1-morpholinoethanone] |
| 26 | 42 | O=C(COc1ccc(C(Cc2ccccc2)=NOCc2ccc(OC(F)(F)F)cc2)cc1)N1CCOCC1 [Example 35, 1-morpholino-2-(4-(2-phenyl-1-(((4-(trifluoromethoxy)benzyl)oxy)imino)ethyl)phenoxy)ethanone] |
| 57 | 73 | CC(C)(C)OC(=O)N1CCC(ONC(=O)COc2ccc3c(c2)CCCC3=NOCc2ccc(C(F)(F)F)cc2)CC1 [Example 62, tert-butyl 4-((2-((5-(((4-(trifluoromethyl)benzyl)oxy)imino)-5,6,7,8-tetrahydronaphthalen-2-yl)oxy)acetamido)oxy)piperidine-1-carboxylate] |
